Literature values in patent EP2637695B1, “OLMESARTAN FORMULATIONS” (Abdi Ibrahim Ilac Sanayi ve Ticaret Anonim Sirketi, priority 2010, dated 2012).
Where two headings read alike, the source gives them in different places.

What was measured:
[1] = in humans

CCCc1nc(C(C)(C)O)c(C(=O)OCc2oc(=O)oc2C)n1Cc1ccc(-c2ccccc2-c2nnn[nH]2)cc1 [Olmesartan medoxomil, (5-methyl-2-oxo-1,3-dioxolen-4-yl)rnethyl 4-(1-hydroxy-1-methylethyl)-2-propyl-1-{4-[2-(tetrazol-5-yl)phenyl]phenyl}methylimidazole-5-carboxylate]
bioavailability (BA) [1]: approximately 26%
solubility (in 17 hydrochloric acid): insoluble
solubility (in strong acid): sparingly soluble
solubility (in strong base): soluble
solubility (in water and in the pH range of 3 to 9): practically insoluble
